The text below walks through data of BindingDB's records for doi:10.1074/jbc.M111.290619 (Washington University, 2011).

For test [1], the target named is T1, Phosphoethanolamine N-methyltransferase 2 (Caenorhabditis elegans, UniProt Q22993). In words: Radiochemical Assay. The note with it: pH 8; 25 °C. An excerpt:
(§1) A radiochemical assay was used to measure enzymatic activity.

Test [2] has as its target T2, Phosphoethanolamine N-methyltransferase 1 (Caenorhabditis elegans, UniProt Q86NB3).
T2 sequence (Q86NB3 whole entry): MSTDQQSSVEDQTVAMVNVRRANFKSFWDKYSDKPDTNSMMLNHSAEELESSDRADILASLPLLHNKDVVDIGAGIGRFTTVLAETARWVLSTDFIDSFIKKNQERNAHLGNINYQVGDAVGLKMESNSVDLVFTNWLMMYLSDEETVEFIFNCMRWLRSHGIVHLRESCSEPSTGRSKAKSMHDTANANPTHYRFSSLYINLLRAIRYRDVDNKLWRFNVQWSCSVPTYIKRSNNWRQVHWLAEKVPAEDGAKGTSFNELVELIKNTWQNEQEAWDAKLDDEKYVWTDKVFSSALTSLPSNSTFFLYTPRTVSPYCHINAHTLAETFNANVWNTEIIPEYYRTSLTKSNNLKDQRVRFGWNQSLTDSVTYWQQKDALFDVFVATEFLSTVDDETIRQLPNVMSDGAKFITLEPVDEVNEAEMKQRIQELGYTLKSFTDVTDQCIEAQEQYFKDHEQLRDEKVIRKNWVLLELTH
In words: Radiochemical Assay. The settings on record: pH 8; 25 °C.
Description: as §1

The target in test [3] is T2, Phosphoethanolamine N-methyltransferase 1. In words: Calorimetric (ITC) Assay. The settings on record: pH 7.5. The procedure:
(§2) For standard ITC analysis of ligand binding, proteins were dialyzed overnight in 25 mm Hepes (pH 7.5), 100 mm NaCl, 5 mm -mercaptoethanol, and 5% glycerol at 4 °C. Ligands (i.e. AdoMet, AdoCys, pEA, and pCho) were prepared in the same buffer. AdoMet and AdoCys concentrations were determined spectrophotometrically (A260 nm; = 15,400 m 1 cm 1) (19). ITC experiments were performed using a VP-ITC calorimeter (Microcal, Inc.). Injections (10 ul) of ligand were added to a sample solution containing protein using a computer-controlled 250-ul microsyringe at intervals of 5 6 min.

Test [4] deals with T1, Phosphoethanolamine N-methyltransferase 2. In words: Calorimetric (ITC) Assay. The settings on record: pH 7.5. The procedure:
as §2

pIC50, pKd: −log10 of the molar value. Where “and” joins values, the source holds several entries; their conditions need not be identical. Identical values can stand only once.

T1 sequence (Q22993 whole entry): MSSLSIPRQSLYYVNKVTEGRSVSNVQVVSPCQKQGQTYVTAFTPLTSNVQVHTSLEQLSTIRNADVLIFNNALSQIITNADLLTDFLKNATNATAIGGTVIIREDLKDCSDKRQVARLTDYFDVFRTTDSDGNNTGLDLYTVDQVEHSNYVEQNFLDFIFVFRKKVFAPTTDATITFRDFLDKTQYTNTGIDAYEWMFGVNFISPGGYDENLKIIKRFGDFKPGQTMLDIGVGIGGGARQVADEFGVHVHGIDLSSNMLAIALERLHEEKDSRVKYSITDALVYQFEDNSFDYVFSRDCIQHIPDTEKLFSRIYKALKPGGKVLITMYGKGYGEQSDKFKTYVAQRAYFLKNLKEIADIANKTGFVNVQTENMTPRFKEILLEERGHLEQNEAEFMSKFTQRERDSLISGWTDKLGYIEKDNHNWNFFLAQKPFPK

For the compound `CCCCCCCCCCCCCCCCOP(=O)([O-])OCC[N+](C)(C)C` [n-hexadecylphosphocholine], the negative-log IC50 (pIC50) (in general, −log10 of the IC50, conventionally taken in molar units) in test [1] was 4.90; in test [2], 3.90.
For `Nc1c2c(nc3ccccc13)CCCC2`, in that order: 2.46 and 1.63.
In the case of `C[S+](CC[C@H](N)C(=O)[O-])C[C@H]1O[C@@H](n2cnc3c(N)ncnc32)[C@H](O)[C@@H]1O` (stereo partly drawn) [(2S)-2-amino-4-({[(2S,3S,4R,5R)-5-(6-amino-9H-purin-9-yl)-3,4-dihydroxyoxolan-2-yl]methyl}(methyl)sulfanylium)butanoate], the pKd (commonly −log10 of the Kd, conventionally taken in molar units) is 4.33 and 4.72 and 4.97 and 5.24 in test [3] (4 °C); 5.21 in test [3] (5 °C); 5.09 in test [3] (10 °C); 4.94 in test [3] (15 °C); 4.78 in test [3] (20 °C); 4.57 in test [3] (25 °C).
As for `Nc1ncnc2c1ncn2[C@@H]1O[C@H](C[C@@H](N)CC[C@H](N)C(=O)O)[C@@H](O)[C@H]1O` [Sinefungin], the negative-log IC50 (pIC50) in test [1] was 4.04; in test [2], 4.47.
For `CCN(CC)Cc1cc(Nc2ccnc3cc(Cl)ccc23)ccc1O` [Amodiaquin], in that order: 2.51 and 2.47.
As to `Nc1ncnc2c1ncn2[C@H]1O[C@@H](CSCC[C@@H](N)C(=O)O)[C@H](O)[C@@H]1O` [AdoCys], the negative-log Kd (pKd) was 5.07 and 5.22 and 5.03 and 5.21 in test [4] (4 °C); 5.70 in test [4] (5 °C); 5.60 in test [4] (10 °C); 5.52 in test [4] (15 °C); 5.38 in test [4] (20 °C); 5.27 in test [4] (25 °C). For the same compound, the negative-log Kd (pKd) in test [3] (4 °C) is 5.54 and 5.66 and 5.89 and 6.05; in test [3] (5 °C) it was 6.15; in test [3] (10 °C), 6.10; in test [3] (15 °C), 5.96; in test [3] (20 °C), 5.80; in test [3] (25 °C), 5.60.
